In US20190382850A1, “METHOD FOR IDENTIFYING MITOCHONDRIAL DNA IN EXTRACELLULAR VESICLES AND TREATMENT OF MTDNA-RELATED DISORDERS AND CANCER” (Memorial Sloan-Kettering Cancer Center, priority 2017, published 2019):

Key:
Jak2 = assay: EV mtDNA copy number from CAFs in hypoxia reoxygenation ± Jak2 inhibitor; type: cell-based; conditions: 500 nM every 3 days, FIG. 14
Protocol: FIG. 14 reports that hypoxia reoxygenation culture condition increases EV mtDNA copy number in a Jak2-Stat(s) dependent manner. 10-cm plates with 10^6 cells (CAFs) were cultured in 1% O2 (hypoxia) for 4 days and 3 days in normal culture conditions (20% O2, hyperoxia) in presence/absence of Jak2 inhibitor (500 nM every 3 days). Conditioned media for EV isolation and DNA level from EVs was analyzed. As control, EVs from 20% O2, hyperoxia were also collected and analyzed. MtDNA as copy number is shown as bar graphs, mean±error bars of ND1 level obtained from EV-DNA (10 ng total DNA).

mu-mtDNAhi HTR cells = assay: Proliferation in presence of OXPHOS inhibitors ± HT; type: cell-based, human; conditions: with and without fulvestrant; atovaquone 1 μM, rotenone 100 nM, oligomycin 200 nM; FIG. 2f, 8e
Description: (Panel a) Representative tumor growth kinetics (BLI) of GFP+/Luciferase+MCF7 xenografts (n=10) treated with weekly fulvestrant once mammary fat pad tumors were established (after 3 months) which led to a period (4 months) of disease stability on HT (HTS) followed by exponential growth on HT (HTR). Representative H&E images of tumors and primary cultures from unsorted as well as FACS purified cancer cells (GFP+/Epcam+) and murine CAFs (GFP−/Epcam). Scale bar 20 μm. (Panel b) OXPHOS potential in tumor-derived cancer cells (panel a) was measured±HT (fulvestrant, 10 μM) by Seahorse. […] (Panel d) Percentage of metastatic lesions isolated by FACS from tumor-bearing mice (n=8/group) expressing murine mtDNA as determined by ND1 qPCR (2 ng of total DNA). Oxygen consumption rates (OCR) in murine-mtDNApos and ctrl HTR cells determined by Seahorse. (Panel e) Murine mitochondrial RNA expression (12 genes: ND1, ND2, COX2, ATP8, ATP6, COX3, ND3, ND4L, ND4, ND5, ND6, CytB) as fold change (logioscale) determined by qRT-PCR in HTR and HTS cells (panel a). […]
FIG. 8 reports that OXPHOS inhibition abrogates HTR disease. (Panel a), Proliferation potential as determined by in vitro cell growth (CalceinAM) in luminal (ER+) and triple negative cancer cell lines cultured in media with increasing concentration of glucose. […]

HTS cells = assay: as above; type: cell-based, human; conditions: with and without fulvestrant
Protocol: FIG. 8 reports that OXPHOS inhibition abrogates HTR disease. (Panel a), Proliferation potential as determined by in vitro cell growth (CalceinAM) in luminal (ER+) and triple negative cancer cell lines cultured in media with increasing concentration of glucose. (Panel b), Oxygen consumption rates (OCR)±oligomycin (200 nM)/rotenone (100 nM) in MCF7 and MDA-MB-231 cells as determined by seahorse technology. (Panel c), Desmin immunohistochemical images of CAFs in HTS/HTR-derived tissues (scale bar 25 μm). (Panel d), Schematic analysis of the generation of metastatic HTR disease in mice. […] Metastatic burden was analyzed by BLI and at necropsy by histological examination (H&E). (Panel e), Proliferation potential in presence of oligomycin (100 nM) and ±HT as determined by in vitro BLI in metastatic cells from HTS and HTR cells FACS purified from xenografts (FIG. 2a). […] (Panel f), mtDNA/nDNA level in circulating EVs from HTR xenografts as determined by copy number (GAPDH, ND1: qPCR Fold change). […]
For immunoblotting assays, cells were lysed in buffer (50 mmol/L Tris at pH 7.5, 150 mmol/L NaCl, 5 μg/mL aprotinin, pepstatin, 1% NP-40, lmmol/L EDTA, 0.25% deoxycholate, and protease inhibitor cocktail tablet, Sigma). […] The enrichment of CAFs in xenografts was determined by desmin immunohistochemistry (IHC) in tumor-derived sections. […]

MCF7 model metastases = assay: Metastatic assay: mastectomy followed by adjuvant HT in MCF7 tumor-bearing mice; type: in vivo; conditions: adjuvant tamoxifen after mastectomy, followed ~9 months
Protocol: FIG. 8 reports that OXPHOS inhibition abrogates HTR disease. (Panel a), Proliferation potential as determined by in vitro cell growth (CalceinAM) in luminal (ER+) and triple negative cancer cell lines cultured in media with increasing concentration of glucose. (Panel b), Oxygen consumption rates (OCR)±oligomycin (200 nM)/rotenone (100 nM) in MCF7 and MDA-MB-231 cells as determined by seahorse technology. (Panel c), Desmin immunohistochemical images of CAFs in HTS/HTR-derived tissues (scale bar 25 μm). (Panel d), Schematic analysis of the generation of metastatic HTR disease in mice. […] Metastatic burden was analyzed by BLI and at necropsy by histological examination (H&E). (Panel e), Proliferation potential in presence of oligomycin (100 nM) and ±HT as determined by in vitro BLI in metastatic cells from HTS and HTR cells FACS purified from xenografts (FIG. 2a). Error bars, mean±s.d. of BLI from n=3 samples. (Panel f), mtDNA/nDNA level in circulating EVs from HTR xenografts as determined by copy number (GAPDH, ND1: qPCR Fold change). Data are reported as error bars, mean±s.d. of n=3 independent experiments (a, e-g). *P<0.05 (Student's t-test) and GLM anova after multiple comparisons (a).
All cancer cell lines were engineered to express a GFP positive luciferase expression vector for in vitro and in vivo imaging studies. […] EV-number was determined by Nanosight. […]

| Structure (SMILES) | generation of mtDNA high EVs (Jak2) | sensitivity of HTR cells to HT (proliferation) (mu-mtDNAhi HTR cells) | combined effect with HT on cell proliferation and/or cell death of HTS cells (HTS cells) | HT treated mice with no evidence of disease (MCF7 model metastases) | HT treated mice with wide-spread (>20) HTR metastases involving multiple organs (MCF7 model metastases) |
| --- | --- | --- | --- | --- | --- |
| Cc1cc(Nc2nc(N[C@@H](C)c3ncc(F)cn3)ncc2Cl)[nH]n1 [AZD 1490] | hampering the generation of mtDNA high EVs | – | – | – | – |
| CC[C@H]1/C=C/C=C/C[C@@H](C)[C@H](O)[C@@](C)(O)C(=O)[C@@H](C)[C@H](O)[C@@H](C)C(=O)[C@@H](C)[C@H](O)[C@@H](C)/C=C/C(=O)O[C@@H]2[C@H](C)[C@H](CC1)O[C@]1(CC[C@H](C)[C@H](C[C@@H](C)O)O1)[C@H]2C [oligomycin] | – | re-sensitized HTR cells to HT | no synergistic effect | – | – |
| C=C(C)[C@H]1Cc2c(ccc3c2O[C@@H]2COc4cc(OC)c(OC)cc4[C@@H]2C3=O)O1 [rotenone] | – | re-sensitized HTR cells to HT | no synergistic effect | – | – |
| CC/C(=C(\c1ccccc1)c1ccc(OCCN(C)C)cc1)c1ccccc1 [tamoxifen] | – | – | – | 90% | 10% |
